In US8431712B2, “Methods for the synthesis of pyridoxamine” (NephroGenex, Inc., priority 2004, dated 2013):
pIC50: −log10 of the molar value.

Biological target: post-Amadori AGE formation (RNase Amadori)
Experiment: Post-Amadori inhibitory activity: inhibition of AGE formation from RNase Amadori, detected by ELISA (BST-3CK antibody, DELFIA Europium)
Assay type: biochemical
Conditions: for potency at inhibiting post-Amadori AGE formation compared to PM: comparison with pyridoxamine (PM)
Method: This example illustrates the activity of the dimer and trimer for inhibiting post-Amadori AGE formation compared to pyridoxamine.
All reactions were done in duplicate All compound stocks were 100 mM in DMSO. All reactions were carried out for 20 hours in 10% DMSO and 0.18 M Phosphate pH 7.4 Reaction volumes were 50 μl. Compound dilutions were first done in 100% DMSO Add to each well: • 20 μl of 0.2 M Phosphate • then 5 μl of compound dilution in 100% DMSO mix • Add 25 μl of 0.2 mg/ml RNase Amadori produced for a final protein concentration in the reaction of 0.1 mg/ml. • After 20 hours the reaction wells were diluted with coating buffer 5 to 50 then 4 to 50 to give a final concentration of 0.8 μg/ml or 40 ng/well. • Coat for two hours • Block one hour • 1 hour with primary antibody BST-3CK @ 1:10,000 • 1 hour with secondary antibody DELFIA Europium GAR @ 0.25 μg/ml (secondary antibody stock is at 660 μg/ml so diluted about 1:2500).
Compounds were tested over the range of concentrations 1000 to 1 μM.

[1] = 20 hours, 10% DMSO, 0.18 M Phosphate pH 7.4, 0.1 mg/ml RNase Amadori, tested 1000 to 1 μM, duplicate

| Compound | pIC50 [1] | potency at inhibiting post-Amadori AGE formation compared to PM | pIC50 (from previous experiments) |
| --- | --- | --- | --- |
| Cc1ncc(CO)c(Cc2nc(C)c(O)c(CN)c2CO)c1O [Dimer X] | 3.00 | more potent than PM | – |
| Cc1ncc(CO)c(Cc2nc(C)c(O)c(Cc3nc(C)c(O)c(CN)c3CO)c2CO)c1O [Trimer XX] | 3.40 | more potent than PM | – |
| Cc1ncc(CO)c(CN)c1O [Sigma PM, 4-aminomethyl-3-hydroxy-5-hydroxymethyl-2-methylpyridine, reference compound] | – | – | 2.15 |
